Data taken from patent US20250382344A1, “Soluble GLP1/GIP/NPY2 Receptor Triple Agonists” (Boehringer Ingelheim International GmH, priority 2024, published 2025).
Like-named read-outs stand apart in the source and are kept apart here.

How the values were obtained:
[1] = Solubility in 0.1 M phosphate buffer at pH 7; format: physicochemical; conditions: 0.1 M phosphate buffer at pH 7, 10 mg/mL final peptide concentration, shaking 2 hours at room temperature, peptides as TFA-salts; measured sample pH 6.5-7.0
hGIPR = target: T1, hGIPR (Homo sapiens, UniProt P48546); experiment: hGIPR CreLuc assay in 0.5% and 100% plasma (CHO CRE-luciferase reporter cells); format: cell-based
T1 construct: expressed in transfected cells; host or cells: CHO CRE-luciferase reporter cells
T1 sequence (P48546 22-466): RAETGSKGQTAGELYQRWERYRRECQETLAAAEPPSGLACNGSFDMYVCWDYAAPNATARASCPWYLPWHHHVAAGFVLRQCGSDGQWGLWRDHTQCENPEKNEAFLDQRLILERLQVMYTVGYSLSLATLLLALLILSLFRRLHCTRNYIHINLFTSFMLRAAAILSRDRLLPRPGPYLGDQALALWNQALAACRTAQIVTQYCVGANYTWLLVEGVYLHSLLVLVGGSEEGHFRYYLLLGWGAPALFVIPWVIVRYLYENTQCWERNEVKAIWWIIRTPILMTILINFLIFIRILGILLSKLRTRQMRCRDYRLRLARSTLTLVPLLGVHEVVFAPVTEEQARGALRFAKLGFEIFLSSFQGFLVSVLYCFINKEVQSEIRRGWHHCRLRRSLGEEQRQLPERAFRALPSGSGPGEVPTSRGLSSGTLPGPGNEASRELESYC

[2] = 0.5% human plasma, read-out: hGIPR 0.5% hP

Row | SMILES | solubility at 2 h [1] [µg/mL] | EC50 (hGIPR; [2]) [nM] | EC50 (hGIPR; 100% human plasma, read-out: hGIPR 100% hP) [nM]
1 | CC[C@H](C)[C@H](NC(=O)[C@H](CC(C)C)NC(=O)[C@H](Cc1c[nH]cn1)NC(=O)[C@H](CCCNC(=N)N)NC(=O)[C@@H](NC(=O)[C@H](Cc1ccccc1)NC(=O)[C@H](C)NC(=O)C(C)(C)NC(=O)[C@H](CCC(N)=O)NC(=O)[C@H](C)NC(=O)[C@H](CCC(N)=O)NC(=O)[C@H](C)NC(=O)[C@H](CCC(=O)O)NC(=O)[C@H](CC(C)C)NC(=O)C(C)(C)NC(=O)[C@@H](NC(=O)[C@H](CO)NC(=O)[C@H](Cc1ccc(O)cc1)NC(=O)[C@H](CC(=O)O)NC(=O)[C@H](CO)NC(=O)[C@@H](NC(=O)[C@H](Cc1ccccc1)NC(=O)[C@@H](NC(=O)CNC(=O)[C@H](CCC(=O)O)NC(=O)C(C)(C)NC(=O)[C@@H](N)Cc1ccc(O)cc1)[C@@H](C)O)[C@@H](C)O)[C@@H](C)CC)C(C)C)C(=O)N[C@@H](CC(N)=O)C(=O)N[C@@H](CCCCNC(=O)[C@@H](N)CCCCNC(=O)CC[C@H](NC(=O)CC[C@H](NC(=O)CC[C@H](NC(=O)CC[C@H](NC(=O)CC[C@H](NC(=O)CC[C@H](NC(=O)CCCCCCCCCCCCCCCCC(=O)O)C(=O)O)C(=O)O)C(=O)O)C(=O)O)C(=O)O)C(=O)O)C(=O)NC(C)(C)C(=O)N[C@H](C(=O)N[C@@H](CCCNC(=N)N)C(=O)N[C@@H](CCC(N)=O)C(=O)N[C@@H](CCCNC(=N)N)C(=O)N[C@@H](Cc1ccc(O)cc1)C(N)=O)[C@@H](C)O [Compound 123, Y-Aib-E-G-T-F-T-S-D-Y-S-I-Aib-L-E-A-Q-A-Q-Aib-A-F-V-R-H-L-I-N-K(1,3)-Aib-T-R-Q-R-Y-NH2.C18DA-gGlu-gGlu-gGlu-gGlu-gGlu-gGlu-eLys(1,2)] | 4300 | 0.3 | –
2 | CC[C@H](C)[C@H](NC(=O)[C@H](CC(C)C)NC(=O)[C@H](Cc1c[nH]cn1)NC(=O)[C@H](CCCNC(=N)N)NC(=O)[C@@H](NC(=O)[C@H](Cc1ccccc1)NC(=O)[C@H](C)NC(=O)C(C)(C)NC(=O)[C@H](CCC(N)=O)NC(=O)[C@H](C)NC(=O)[C@H](CCC(N)=O)NC(=O)[C@H](CCCCN)NC(=O)[C@H](CCC(=O)O)NC(=O)[C@H](CC(C)C)NC(=O)C(C)(C)NC(=O)[C@@H](NC(=O)[C@H](CO)NC(=O)[C@H](Cc1ccc(O)cc1)NC(=O)[C@H](CC(=O)O)NC(=O)[C@H](CO)NC(=O)[C@@H](NC(=O)[C@H](Cc1ccccc1)NC(=O)[C@@H](NC(=O)CNC(=O)[C@H](CCC(=O)O)NC(=O)C(C)(C)NC(=O)[C@@H](N)Cc1ccc(O)cc1)[C@@H](C)O)[C@@H](C)O)[C@@H](C)CC)C(C)C)C(=O)N[C@@H](CC(N)=O)C(=O)N[C@@H](CCCCNC(=O)[C@@H](N)CCCCNC(=O)CC[C@H](NC(=O)CC[C@H](NC(=O)CC[C@H](NC(=O)CC[C@H](NC(=O)CC[C@H](NC(=O)CC[C@H](NC(=O)CC[C@H](NC(=O)CCCCCCCCCCCCCCCCCCC(=O)O)C(=O)O)C(=O)O)C(=O)O)C(=O)O)C(=O)O)C(=O)O)C(=O)O)C(=O)NC(C)(C)C(=O)N[C@H](C(=O)N[C@@H](CCCNC(=N)N)C(=O)N[C@@H](CCC(N)=O)C(=O)N[C@@H](CCCNC(=N)N)C(=O)N[C@@H](Cc1ccc(O)cc1)C(N)=O)[C@@H](C)O [Compound 35, Y-Aib-E-G-T-F-T-S-D-Y-S-I-Aib-L-E-K-Q-A-Q-Aib-A-F-V-R-H-L-I-N-K(1,3)-Aib-T-R-Q-R-Y-NH2.C20DA-gGlu-gGlu-gGlu-gGlu-gGlu-gGlu-gGlu-eLys(1,2)] | 5200 | 0.7 | –
3 | CC[C@H](C)[C@H](NC(=O)[C@H](CC(C)C)NC(=O)[C@H](Cc1c[nH]cn1)NC(=O)[C@H](CCCNC(=N)N)NC(=O)[C@@H](NC(=O)[C@H](Cc1ccccc1)NC(=O)[C@H](C)NC(=O)C(C)(C)NC(=O)[C@H](CCC(N)=O)NC(=O)[C@H](C)NC(=O)[C@H](CCC(N)=O)NC(=O)[C@H](CCCCN)NC(=O)[C@H](CCC(=O)O)NC(=O)[C@H](CC(C)C)NC(=O)C(C)(C)NC(=O)[C@@H](NC(=O)[C@H](CO)NC(=O)[C@H](Cc1ccc(O)cc1)NC(=O)[C@H](CC(=O)O)NC(=O)[C@H](CO)NC(=O)[C@@H](NC(=O)[C@H](Cc1ccccc1)NC(=O)[C@@H](NC(=O)CNC(=O)[C@H](CCC(=O)O)NC(=O)C(C)(C)NC(=O)[C@@H](N)Cc1ccc(O)cc1)[C@@H](C)O)[C@@H](C)O)[C@@H](C)CC)C(C)C)C(=O)N[C@@H](CC(N)=O)C(=O)N[C@@H](CCCCNC(=O)[C@@H](N)CCNC(=O)CC[C@H](NC(=O)CC[C@H](NC(=O)CC[C@H](NC(=O)CC[C@H](NC(=O)CC[C@H](NC(=O)CC[C@H](NC(=O)CCCCCCCCCCCCCCCCCCC(=O)O)C(=O)O)C(=O)O)C(=O)O)C(=O)O)C(=O)O)C(=O)O)C(=O)NC(C)(C)C(=O)N[C@H](C(=O)N[C@@H](CCCNC(=N)N)C(=O)N[C@@H](CCC(N)=O)C(=O)N[C@@H](CCCNC(=N)N)C(=O)N[C@@H](Cc1ccc(O)cc1)C(N)=O)[C@@H](C)O [Compound 46, Y-Aib-E-G-T-F-T-S-D-Y-S-I-Aib-L-E-K-Q-A-Q-Aib-A-F-V-R-H-L-I-N-K(1,3)-Aib-T-R-Q-R-Y-NH2.C20DA-gGlu-gGlu-gGlu-gGlu-gGlu-gGlu-gDab(1,2)] | 4200 | 0.8 | –

The remaining lines, values ahead:

Row | solubility at 2 h [1] [µg/mL] | EC50 (hGIPR; [2]) [nM] | EC50 (hGIPR; 100% human plasma, read-out: hGIPR 100% hP) [nM] | SMILES
4 | 4000 | 0.2 | 2 | CC[C@H](C)[C@H](NC(=O)[C@H](CC(C)C)NC(=O)[C@H](Cc1c[nH]cn1)NC(=O)[C@H](CCCNC(=N)N)NC(=O)[C@@H](NC(=O)[C@H](Cc1ccccc1)NC(=O)[C@H](C)NC(=O)C(C)(C)NC(=O)[C@H](CCC(N)=O)NC(=O)[C@H](C)NC(=O)[C@H](CCC(N)=O)NC(=O)[C@H](CCCCN)NC(=O)[C@H](CCC(=O)O)NC(=O)[C@H](CC(C)C)NC(=O)C(C)(C)NC(=O)[C@@H](NC(=O)[C@H](CO)NC(=O)[C@H](Cc1ccc(O)cc1)NC(=O)[C@H](CC(=O)O)NC(=O)[C@H](CO)NC(=O)[C@@H](NC(=O)[C@H](Cc1ccccc1)NC(=O)[C@@H](NC(=O)CNC(=O)[C@H](CCC(=O)O)NC(=O)C(C)(C)NC(=O)[C@@H](N)Cc1ccc(O)cc1)[C@@H](C)O)[C@@H](C)O)[C@@H](C)CC)C(C)C)C(=O)N[C@@H](CC(N)=O)C(=O)N[C@@H](CCCCNC(=O)[C@@H](N)CCCCNC(=O)CC[C@H](NC(=O)CC[C@H](NC(=O)CC[C@H](NC(=O)CC[C@H](NC(=O)CC[C@H](NC(=O)CC[C@H](NC(=O)CCCCCCCCCCCCCCCCC(=O)O)C(=O)O)C(=O)O)C(=O)O)C(=O)O)C(=O)O)C(=O)O)C(=O)NC(C)(C)C(=O)N[C@H](C(=O)N[C@@H](CCCNC(=N)N)C(=O)N(C)[C@@H](CCC(N)=O)C(=O)N[C@@H](CCCNC(=N)N)C(=O)N[C@@H](Cc1ccc(O)cc1)C(N)=O)[C@@H](C)O [Compound 17, Y-Aib-E-G-T-F-T-S-D-Y-S-I-Aib-L-E-K-Q-A-Q-Aib-A-F-V-R-H-L-I-N-K(1,3)-Aib-T-R-NMeQ-R-Y-NH2.C18DA-gGlu-gGlu-gGlu-gGlu-gGlu-gGlu-eLys(1,2)]
5 | 4300 | 0.3 | – | CC[C@H](C)[C@H](NC(=O)[C@H](CC(C)C)NC(=O)[C@H](Cc1c[nH]cn1)NC(=O)[C@H](CCCNC(=N)N)NC(=O)[C@@H](NC(=O)[C@H](Cc1ccccc1)NC(=O)[C@H](C)NC(=O)C(C)(C)NC(=O)[C@H](CCC(N)=O)NC(=O)[C@H](C)NC(=O)[C@H](CCC(N)=O)NC(=O)[C@H](CCC(=O)O)NC(=O)[C@H](CCC(=O)O)NC(=O)[C@H](CC(C)C)NC(=O)C(C)(C)NC(=O)[C@@H](NC(=O)[C@H](CO)NC(=O)[C@H](Cc1ccc(O)cc1)NC(=O)[C@H](CC(=O)O)NC(=O)[C@H](CO)NC(=O)[C@@H](NC(=O)[C@H](Cc1ccccc1)NC(=O)[C@@H](NC(=O)CNC(=O)[C@H](CCC(=O)O)NC(=O)C(C)(C)NC(=O)[C@@H](N)Cc1ccc(O)cc1)[C@@H](C)O)[C@@H](C)O)[C@@H](C)CC)C(C)C)C(=O)N[C@@H](CC(N)=O)C(=O)N[C@@H](CCCCNC(=O)CC[C@H](NC(=O)CC[C@H](NC(=O)CC[C@H](NC(=O)CC[C@H](NC(=O)CC[C@H](NC(=O)CCCCCCCCCCCCCCCCC(=O)O)C(=O)O)C(=O)O)C(=O)O)C(=O)O)C(=O)O)C(=O)NC(C)(C)C(=O)N[C@H](C(=O)N[C@@H](CCCNC(=N)N)C(=O)N[C@@H](CCC(N)=O)C(=O)N[C@@H](CCCNC(=N)N)C(=O)N[C@@H](Cc1ccc(O)cc1)C(N)=O)[C@@H](C)O [Compound 75, Y-Aib-E-G-T-F-T-S-D-Y-S-I-Aib-L-E-E-Q-A-Q-Aib-A-F-V-R-H-L-I-N-K(1,3)-Aib-T-R-Q-R-Y-NH2.C18DA-gGlu-gGlu-gGlu-gGlu-gGlu(1,2)]
